Assay [1] deals with taste bud organoids from anterior tongue epithelial tissue. In words: Differentiation into taste cells in anterior tongue taste bud organoids, immunofluorescence staining of taste cell markers. It is filed as cell-based, mouse. As for the experimental part:
(§1) The tongue was collected from a mouse, and dispase II enzyme (2 mg/mL) (Roche, cat #4942078001) diluted in physiological saline was injected into the space between the epithelium and subepithelial connective tissue to expand the tongue tissue ((2) in FIG. 1), and the expanded tongue tissue was cultured in dispase II enzyme dilution at 37° C. for 30 minutes. The epithelial layer is peeled off from the subepithelial connective tissue to separate the epithelial lamina therefrom, and it is cut into as small an area as possible using tools such as sterilized surgical scissors or a knife in trypsin/EDTA (Gibco, cat #25200072) solution. The finely cut tissues were cultured at 37° C. for 30 minutes. Thereafter, the finely cut tissues are subjected to pressure by continuous pipetting to extract cells from the tissue and form a single cell suspension. The cell pellets obtained by centrifuging this suspension are embedded in an extracellular matrix such as Matrigel at an appropriate ratio.
(§2) All culture media are based on basic culture medium (DMEM/F12+1×GlutaMax+1×HEPES+1×N2 supplement+1×B27 supplement+1×penicillin/streptomycin).
(§3) The single cells embedded in the Matrigel were cultured in differentiation medium 1 (FIRNY+SAG) for 4 days, then cultured for 10 days, while replacing the culture medium with differentiation medium 2 (FIRN+SAG+CHIR_SU5402) and changing the medium culture every 2-3 days.
In culturing taste bud organoids from anterior tongue epithelial tissue, it was confirmed by immunofluorescence staining that when SAG-containing basic culture medium was treated with CHIR99021 (CHIR), which stimulates the Wnt and Notch signaling pathways, the differentiation efficiency into type 1, type 2 and type 3 taste cells all increased (FIG. 4).
In order to confirm the optimization of the expression efficiency of markers for cells that make up taste buds in organoids and the differentiation efficiency into cells that make up taste buds by components other than CHIR, CHIR was added after the first 3 days of culture, and organoids were cultured in culture medium in which FGF was removed or SU5402 was additionally added. As a result, it was confirmed by immunofluorescence staining that when FGF was removed or SU5402 was additionally input after 3 days of culture, the differentiation efficiency into type 2 and type 3 taste cells increased (FIG. 6).

The test system is the same in assay [2]. Put plainly: Culture efficiency (growth efficiency, size) of taste bud organoids from anterior tongue epithelial tissue. It is filed as cell-based, mouse. The following applies: added alone or in combination to basic culture medium supplemented with R-spondin1 and noggin; SAG added under all these conditions (FIG. 2). As for the experimental part: as §1, §2, §3

Take `Cc1cnc(-c2cnc(NCCNc3ccc(C#N)cn3)nc2-c2ccc(Cl)cc2Cl)[nH]1` [CHIR99021]: in assay [1] (SAG-containing basic culture medium treated with CHIR99021, immunofluorescence staining (FIG. 4)), the “differentiation efficiency into type 1, type 2 and type 3 taste cells” value was “all increased”. In assay [1] (treated with CHIR on days 3, 5 or 7, immunofluorescence staining (FIG. 5)), the “differentiation efficiency into type 1, type 2 and type 3 taste cells by CHIR-treated time” value was “the earlier treatment with CHIR, the higher the differentiation efficiency”.

Turning to `CNC1CCC(N(Cc2cccc(-c3ccncc3)c2)C(=O)c2sc3ccccc3c2Cl)CC1` (stereo not drawn) [SAG], in assay [2], the “growth efficiency or size of the organoid itself” value (from here on “growth efficiency or size”) is “no change”. The “differentiation into type 1, type 2 and type 3 taste cells” value in assay [1] (SAG added to basic culture medium with R-spondin1 and noggin, with or without EGF, FGF2, IGF1 (FIG. 3)) is “differentiation into type 1, type 2 and type 3 taste cells was confirmed”.

As to `Cc1c[nH]c(/C=C2\C(=O)Nc3ccccc32)c1CCC(=O)O` [SU5402], the “differentiation efficiency into type 2 and type 3 taste cells” value in assay [1] (CHIR added after the first 3 days of culture, SU5402 additionally input after 3 days, immunofluorescence staining (FIG. 6)) is on record as “increased”.

For “EGF: growth factor added to the basic culture medium (NSDSECPLSHDGYCLHDGVCMYIEALDKYACNCVVGYIGERCQYRDLKWWELR; UniProt P01133 971-1023, looked up)”, the “growth efficiency or size” value in assay [2] is listed as “no change”.

For “FGF2: fibroblast growth factor 2, protein that regulates cell growth, proliferation and differentiation”, the “growth efficiency or size” value in assay [2] is “no change”. The “differentiation efficiency into taste cells” value in assay [1] (growth factor added to SAG-containing medium with R-spondin1 and noggin, immunofluorescence staining (FIG. 3)) is “differentiation efficiency increased”.

With “IGF1: insulin-like growth factor 1, protein that regulates cell growth, proliferation and differentiation”, the “growth efficiency or size” value in assay [2] is reported as “no change”.

The values are drawn from patent publication US20240254439A1, “METHOD FOR PREPARING TASTE BUD ORGANOIDS USING ANTERIOR TONGUE EPITHELIAL CELLS” (Korea University Research and Business Foundation, priority 2023, published 2024).
